Results from PMC6052416, “Selective inhibition of carbonic anhydrase-IX by sulphonamide derivatives induces pH and reactive oxygen species-mediated apoptosis in cervical cancer HeLa cells” (Journal of Enzyme Inhibition and Medicinal Chemistry, 2018).
Where two headings read alike, the source gives them in different places.

How the values were obtained:
[1] = test system: MDA-MB-231 (breast adenoma cancer cell); test: WST-1 cytotoxicity, MDA-MB-231; format: cell-based, human
Experimental: Cancer and normal cell lines were purchased from ATCC and stored in liquid nitrogen. HT-29 (colon adenoma cancer), HeLa (cervix adenoma cancer cell), MDA-MB-231 (breast adenoma cancer cell), HEK-293 (embryonic kidney epithelial cell) and PNT-1A (normal prostate cells) cell lines were incubated in DMEM: F-12 and RPMI-1640, including 10% foetal bovine serum (FBS), 100 µg/mL streptomycin/100 IU/mL penicillin, at 37 °C in an incubator containing 5% CO2, 95% air in a humid atmosphere.
The cytotoxic effects of the substances were evaluated with WST-1 kits (Roche, Germany) in accordance with the manufacturer’s protocols. The cells were planted in 96-well plates (10^4 cells in each well). After incubation for 24 h, the media were discarded and the substances and 5-Fu as the control drug, at doses of 0, 2.5, 5, 10, 25, 50, 100 and 200 µM, were incubated for 24, 48 and 72 h. WST-1 reactive of 10 µL was added to all wells. Following 4-h incubation, the measurements were taken on a plate reader (Spectramax M5) at wavelengths of 450 and 630 nm. Graphs were then created and the IC50 value of each substance was calculated.

HeLa cells = test: Cell cycle analysis by flow cytometry; format: cell-based, human; conditions: 24 h
Experimental: Cell cycle analysis was performed using BD Cycletest™ Plus DNA Reagent kit (BD Biosciences). According to the kit protocol, 1 × 10^6 cells were planted in 6-well plates, and following 24 h, the cells were incubated for 24 h, with sulphonamide derivative compounds at concentrations of 10–25–50 µM. The cells were raised with trypsin handling and centrifuged at 1500 rpm for 5 min. A suspension was formed with 1X binding buffer, and respectively, 250 µL solution A was added and incubated in a light-free environment for 10 min; 200 µL solution B was added and incubated in a light-free environment for 10 min; and 200 µL solution C was added and incubated in at +4° C in a protected-light environment for 10 min. All analyses were performed by flow cytometry (BD Via, New Jersey, USA).

SMILES: NS(=O)(=O)c1ccc(CCN=Cc2cc(Br)ccc2O)cc1 [Compound 1]
- IC50 ([1]; WST-1, 48 h, read-out: IC50 MDA-MB-231 48 h): 68.8 ± 4.65 µM
- IC50 ([1]; WST-1, 72 h, read-out: IC50 MDA-MB-231 72 h): 56.7 ± 3.55 µM
- S (HeLa cells; 50μM): 20.1%
- Sub-G1 (HeLa cells; 50μM): 10.8%
- dose from which the cell division effect was seen (HeLa cells): ≥ 25 µM
